Consider 21 molecules from patent US11510906B1, “Diazacyclobutene derivatives as anti-parasitic drug substances” (Clemson University, priority 2019, dated 2022).

The subject of the experiment is Trypanosoma brucei brucei bloodstream form (BSF) parasites (cell line 90-13, a 427 strain). Kind of experiment: Parasite viability assay (CellTiter Blue), bloodstream form African trypanosomes. The experiment is classed as cell-based. The conditions noted are these: for % BSF Growth Inhibition @ 10 μM: 10 μM compound, 48 hours; for EC50: 48 hours at 37° C., averages of triplicates. On the procedure: To determine the impact of diazacyclobutene derivatives on the growth of African trypanosomes (Trypanosoma brucei brucei) as a representative parasite, bloodstream form (BSF) parasites (cell line 90-13, a 427 strain at 1×10^5 cell/mL) were seeded into 384-well black plates in 40 μL HMI-9 supplemented with 10% fetal bovine serum and 10% Serum Plus (Sigma-Aldrich, St. Louis Mo.) in the presence of compound or equivalently diluted carrier. After 48 hours at 37° C. in 5% CO2, CellTiter Blue (8 μL, Promega, Madison Wis.) was added and the plates incubated an additional 3 hours. Fluorescence emission at A585 was then measured after excitation at A546 on a Synergy H1 Hybrid Reader (Biotek, Winooski Vt.). Averages of triplicates were calculated and fit to dose-response curves using Prism (Graphpad, San Diego Calif.) for the determination of EC50 values.
For orientation: The colour change of resazurin is a common sign of viable cells or microbes.

For orientation: EC50 means the concentration at which the effect is half-maximal. Consider `CCSc1c(-c2ccccc2)n2c(=O)n(-c3ccccc3)c(=O)n12` [Compound 2], for which the “% BSF Growth Inhibition @ 10 μM” value is listed as 23.4 ± 5.7% and the EC50 is greater than 10 µM.
The like results for `CCCCSc1c(-c2ccccc2)n2c(=O)n(-c3ccccc3)c(=O)n12` [Compound 4] were, in that order, 80.5 ± 2.1% and greater than 5 µM.
The corresponding values for `CCCCCSc1c(-c2ccccc2)n2c(=O)n(-c3ccccc3)c(=O)n12` [Compound 5] are 98.21 ± 0.17% and 2.65 ± 0.16 µM.
For the molecule `CCCCCCCCSc1c(-c2ccccc2)n2c(=O)n(-c3ccccc3)c(=O)n12` [Compound 6], the “% BSF Growth Inhibition @ 10 μM” value is 94.71 ± 3.48% and the concentration for a half-maximal effect (EC50) was found to be 2.04 ± 0.21 µM.
The like results for `Cc1ccc(S(=O)(=O)N(C)c2c(-c3ccccc3)n3c(=O)n(-c4ccccc4)c(=O)n23)cc1` [Compound 21] were, in that order, 2.5 ± 4.3% and greater than 10 µM.
The like results for `Cc1ccc(S(=O)(=O)N(C)c2c(-c3ccc(C(F)(F)F)cc3)n3c(=O)n(-c4ccccc4)c(=O)n23)cc1` [Compound 22] were, in that order, 0% and greater than 10 µM.
On to `O=c1n(-c2ccccc2)c(=O)n2c(-c3ccccc3)c([Se]c3ccccc3)n12` [Compound 18], for which the “% BSF Growth Inhibition @ 10 μM” value was 84.24 ± 8.21%.
Consider `CCSc1c(-c2ccc(C)cc2)n2c(=O)n(-c3ccccc3)c(=O)n12` [Compound 10], for which the “% BSF Growth Inhibition @ 10 μM” value turned out to be 95.2 ± 3.5% and the half-maximal effective concentration (EC50) amounted to 3.66 ± 1.7 µM.
The like results for `CCCSc1c(-c2ccccc2)n2c(=O)n(-c3ccccc3)c(=O)n12` [Compound 3] were, in that order, 96.6 ± 0.3% and 5.83 ± 2.2 µM.
The corresponding values for `CCCCc1c(SC)n2c(=O)n(-c3ccccc3)c(=O)n12` [Compound 14] are 95.6 ± 1.2% and 0.35 ± 0.04 µM.
As to `CCCCSc1c(CCCC)n2c(=O)n(-c3ccccc3)c(=O)n12` [Compound 15], the “% BSF Growth Inhibition @ 10 μM” value is reported as 59.2 ± 6.6%.
Regarding `CSc1c(-c2ccc(C(F)(F)F)cc2)n2c(=O)n(-c3ccccc3)c(=O)n12` [Compound 13], the “% BSF Growth Inhibition @ 10 μM” value stood at 89.6 ± 2.8% and the 50% effective concentration (EC50) is greater than 2.5 µM.
The corresponding values for `CSc1c(-c2ccc(Cl)cc2)n2c(=O)n(-c3ccccc3)c(=O)n12` [Compound 12] are 62.2 ± 2.7% and greater than 5 µM.
In the case of `COc1cccc(-n2c(=O)n3c(SC)c(-c4ccccc4)n3c2=O)c1` [Compound 25], the concentration for a half-maximal effect (EC50) is greater than 10 µM.
For the molecule `O=c1n(-c2ccccc2)c(=O)n2c(-c3ccccc3)c(Sc3ccccc3)n12` [Compound 8], the “% BSF Growth Inhibition @ 10 μM” value came out at 11.5 ± 7% and the concentration for a half-maximal effect (EC50) is greater than 10 µM.
The corresponding values for `CSc1c(-c2ccccc2)n2c(=O)n(-c3ccccc3)c(=O)n12` [Compound 1] are 35.6 ± 1.9% and greater than 10 µM.
On to `CSc1c(-c2ccccc2)n2c(=O)n(-c3cccc(Cl)c3)c(=O)n12` [Compound 23], for which the concentration giving a half-maximal response (EC50) stood at 7.08 ± 1.9 µM.
As for `C[Se]c1c(-c2ccccc2)n2c(=O)n(-c3ccccc3)c(=O)n12` [Compound 17], the “% BSF Growth Inhibition @ 10 μM” value turned out to be 46.1 ± 6.2% and the EC50 is greater than 10 µM.
Consider `COc1ccc(-c2c(SC)n3c(=O)n(-c4ccccc4)c(=O)n23)cc1` [Compound 11], for which the “% BSF Growth Inhibition @ 10 μM” value came out at 77.1 ± 3.5% and the half-maximal effective concentration (EC50) was greater than 5 µM.
`CSc1c(-c2ccc(C)cc2)n2c(=O)n(-c3ccccc3)c(=O)n12` [Compound 9]: the concentration for a half-maximal effect (EC50) was greater than 10 µM.
For the molecule `O=c1n(-c2ccccc2)c(=O)n2c(-c3ccccc3)c(SCc3ccccc3)n12` [Compound 7], the “% BSF Growth Inhibition @ 10 μM” value came to 98.87 ± 2.68% and the concentration giving a half-maximal response (EC50) turned out to be 0.386 ± 0.034 µM.
